The structures appear in SMILES notation.

T1 sequence (P25774 115-331): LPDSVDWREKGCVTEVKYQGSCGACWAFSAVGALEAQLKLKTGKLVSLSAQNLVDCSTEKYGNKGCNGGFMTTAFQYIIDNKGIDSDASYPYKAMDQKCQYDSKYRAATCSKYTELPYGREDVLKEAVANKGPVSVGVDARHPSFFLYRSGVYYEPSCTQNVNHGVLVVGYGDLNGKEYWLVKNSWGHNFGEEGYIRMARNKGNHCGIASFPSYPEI

The test addresses T1, human cathepsin S (hCatS) (Homo sapiens, UniProt P25774).
T1 construct: gene CTSS
Nature of the test: fluorogenic enzyme inhibition assay, Cbz-Val-Val-Arg-AMC substrate; Ki from IC50. The test is classed as biochemical.
In general, Ki refers to the dissociation constant of the complex between target and ligand, obtained from inhibition or displacement. Read a high Ki as lower affinity. `CCCC[C@H](NC(=O)OCc1ccccc1)C(=O)N[C@H](/C=C/C(C)=O)C[C@@H]1CCNC1=O` [SPR38] yielded a Ki of 58.8 ± 3.6 nM.
The compound `CC(=O)/C=C/[C@H](C[C@@H]1CCNC1=O)NC(=O)[C@H](CC1CC1)NC(=O)OCc1ccccc1` [SPR39] came in with an inhibition constant Ki of 45.1 ± 3.8 nM.
For the compound `CC(=O)/C=C/[C@H](C[C@@H]1CCNC1=O)NC(=O)[C@H](CC1CCCCC1)NC(=O)OCc1ccccc1` [SPR41], the Ki worked out at 10.7 ± 1.1 nM.

Values taken from article PMC12566624, “A Second Opportunity for the Peptide-Based Analogues with γ-Lactam at the P1 Position: Human Cathepsin S Inhibition” (Pharmaceuticals, 2025).
